{
  "source": "ChEMBL document CHEMBL4765493",
  "about": "“Berberine Directly Targets the NEK7 Protein to Block the NEK7-NLRP3 Interaction and Exert Anti-inflammatory Activity” (J Med Chem, 2021)",
  "key": {"[1]": {"assay": "Inhibition of LPS + nigericin-induced IL-1beta secretion in PMA-differentiated human THP-1 cells at 20 uM incubated for 24 hrs by ELISA", "type": "functional"}, "HEK293": {"system": "HEK293", "assay": "Inhibition of NEK7-NLRP3 interaction (unknown origin) expressed in HEK293 cells at 10 uM incubated for 24 hrs by Co-IP assay", "type": "cell-based", "settings": "Homo sapiens"}},
  "note": "Calls of active or inactive are those of the source. No cut-off for these calls is given here.",
  "data": [
    {"smiles": "C#CCOCCOc1cc(C2(C(F)(F)F)N=N2)ccc1C(=O)NCCOCCOCCOc1ccc2cc3[n+](cc2c1OC)CCc1cc2c(cc1-3)OCO2", "values": [
      {"measurement": "inhibition at 20 µM", "setting": "[1]", "result": 80, "unit": "%"}
    ]},
    {"smiles": "COc1c(OCCOCCNC(=O)CCCC[C@@H]2SC[C@@H]3NC(=O)N[C@@H]32)ccc2cc3[n+](cc12)CCc1cc2c(cc1-3)OCO2", "values": [
      {"measurement": "inhibition at 20 µM", "setting": "[1]", "result": 26, "unit": "%"}
    ]},
    {"smiles": "COc1ccc2cc3[n+](cc2c1OCCOCCOCCNC(=O)CCCC[C@@H]1SC[C@@H]2NC(=O)N[C@@H]21)CCc1cc2c(cc1-3)OCO2", "values": [
      {"measurement": "inhibition at 20 µM", "setting": "[1]", "result": 16, "unit": "%"}
    ]},
    {"smiles": "COc1cc2c(cc1OC)-c1cc3ccc(OC)c(OCCCNC(=O)CCCC[C@@H]4SC[C@@H]5NC(=O)N[C@@H]54)c3c[n+]1CC2", "values": [
      {"measurement": "inhibition at 20 µM", "setting": "[1]", "result": 80, "unit": "%"}
    ]},
    {"smiles": "COc1cc2c(cc1OC)-c1cc3ccc(OC)c(OCCOCCNC(=O)CCCC[C@@H]4SC[C@@H]5NC(=O)N[C@@H]54)c3c[n+]1CC2", "values": [
      {"measurement": "inhibition at 20 µM", "setting": "[1]", "result": 65, "unit": "%"}
    ]},
    {"smiles": "COc1ccc2cc3[n+](cc2c1OCCOCCNC(=O)CCCC[C@@H]1SC[C@@H]2NC(=O)N[C@@H]21)CCc1cc2c(cc1-3)OCO2", "values": [
      {"measurement": "inhibition at 20 µM", "setting": "[1]", "result": 10, "unit": "%"}
    ]},
    {"smiles": "COc1cc2c(cc1OCCCCCNC(=O)CCCC[C@@H]1SC[C@@H]3NC(=O)N[C@@H]31)CC[n+]1cc3c(OC)c(OC)ccc3cc1-2", "values": [
      {"measurement": "inhibition at 20 µM", "setting": "[1]", "result": 70, "unit": "%"}
    ]},
    {"smiles": "COc1cc2c(cc1OCCOCCOCCNC(=O)CCCC[C@@H]1SC[C@@H]3NC(=O)N[C@@H]31)CC[n+]1cc3c(OC)c(OC)ccc3cc1-2", "values": [
      {"measurement": "inhibition at 20 µM", "setting": "[1]", "result": -79, "unit": "%"}
    ]},
    {"smiles": "COc1cc2c(cc1OC)-c1cc3ccc(OC)c(OC)c3c[n+]1CC2", "values": [
      {"measurement": "inhibition", "setting": "HEK293", "result": "inactive"}
    ]},
    {"smiles": "COc1cc2c(cc1OC)-c1cc3ccc(OC)c(OCCCCCNC(=O)CCCC[C@@H]4SC[C@@H]5NC(=O)N[C@@H]54)c3c[n+]1CC2", "values": [
      {"measurement": "inhibition at 20 µM", "setting": "[1]", "result": 77, "unit": "%"}
    ]}
  ]
}
